Data on three molecules can be found in patent publication US20180177849A1, “Therapeutic Uses of Elsiglutide” (HELSINN HEALTHCARE SA, priority 2015, published 2018).

Data set [1] deals with rats bearing colon tumors and xenografts bearing human colon carcinoma, HCT8 and HT-29. The data set can be described thus: Antitumor activity in tumor-bearing rodents. It counts as in vivo. The note with it: 5-FU/irinotecan alone. As to the method:
(§1) Studies were carried out in normal rats, rats bearing colon tumors and xenografts bearing human colon carcinoma, HCT8 and HT-29. Studies were carried out to test the hypothesis that elsiglutide offers selective protection against 5-Fluorouvacil-(5-FU) and irinotecan-induced toxicities and potentially enhances their antitumor activity. Elsiglutide was administered subcutaneously at non-toxic but therapeutically-effective dose of 1.8 mg/kg/day daily for 4 days, 30 min prior to each 5-FU/irinotecan dose. The tested doses of 5-FU were 100 mg/kg (MTD) and 200 mg/kg, and the doses of irinotecan were 100 mg/kg (MTD) and 200 mg/kg, either daily ×3 or weekly ×4.

Data set [2] can be described thus: Protection against 5-FU- and irinotecan-induced toxicities. Also on record: species or system mice and rats. The settings on record: in vivo; daily ×3 or weekly ×4. As to the method:
as §1

Data set [3] has as its system bone marrow of rat sternum. The data set can be described thus: Histopathological evaluation of sternum bone marrow. The note with it: Group 8, irinotecan 200 mg/kg i.v.; 5 dead animals. Format: in vivo. The protocol:
(§2) The spleen and bone marrow of sternum of untreated Fischer rats and rats treated with irinotecan with 100, 150 and 200 mg/kg/d×3 alone and in combination with Elsiglutide (1.8 mg/kg/d×4) were examined histologically.
(§3) Histologic analysis using sternum bone marrow and spleen were carried out on day 9 (6 days after the administration of the last irinotecan dose on day 3). Bone marrow and spleen specimens were fixed in buffered formalin (10%) for 48 hours. The entire sternum and spleen were removed during autopsy at the end of the experiments on day 9. The samples were put in 10% buffered formalin for 48 hours in order to get appropriate fixation. After that the sternum was decalcified in a Rapid Decalcifier (RDO) from Apex Engineering Products Corporation (Aurora, Ill., USA) for 17 minutes when the sternum could be bent easily with fingers. When decalcification was complete, samples were taken out of solution and put under cold running water for 60 minutes to remove the decalcification solution containing hydrochloric acid as an active ingredient. Then the decalcified bone marrow and spleen specimen were processed, embedded in paraffin, cut (5 u) and stained conventionally with hematoxylin and eosin (HE). The HE stained slides were used for general orientation and evaluation under light microscope using various magnifications. […]

A further data set deals with spleen of Fischer rats. The data set can be described thus: Histopathological evaluation of spleen. It counts as in vivo, rat. The note with it: Group 8, irinotecan 200 mg/kg i.v.; 5 dead animals. As to the method:
as §2, §3

Data set [4] deals with Fischer rats. The data set can be described thus: Complete blood cell count (CBC) analysis of peripheral blood. Format: in vivo, rat. The protocol: 8 to 12-week-old female Fischer 344/N rats (body weight 160-200 g) were obtained from Harlan Sprague Dawley Inc. (Indianapolis, Ind.).
Irinotecan was purchased as a ready-to-use formulation solution at a concentration of 20 mg/ml (100 mg in a 5 ml vial). For a rat of 150-200 g, an administration up to 2 ml solution (dose of 200 mg/kg/d×3) was required.
(§4) Elsiglutide was administered by subcutaneous (S.C) route at 1.8 mg/kg/day once a day for 4 days. Three doses were administered 30 minutes prior to each daily intravenous (I.V) dose of irinotecan. Only the fourth dose of elsiglutide was administered 24 hours after the last dose of irinotecan. Irinotecan was administered by intravenous (I.V) injection at the maximum tolerated and therapeutic dose, 100, 150, 200 mg/kg/day for 3 days.
Hematological (CBC) Analysis • Complete blood cell count (CBC) analysis (days 0, 4, and 9) • From peripheral blood 14 markers, WBC (differential: neutrophils, lymphocytes, eosinophils, monocytes, basophils) and RDW-SD, RBC, HGB, HCT, MCV, MCH, MCHC, and Platelets were analyzed.
The statistical analysis of complete blood cells (CBC) results was carried out. The differences between the mean values in the different treatment groups were analyzed for significance.
(§5) Treatment groups and time when specific acquisition of tissues was obtained are outlined below. Fischer Rats (Female), weighing 150 to 180 g (8-12 weeks) were utilized. • Control, histology, d 9 and CBC, baseline, day 4 and day 9 • Control vehicle, histology, d 9 and CBC baseline, d 4 and d 9 • Irinotecan 100 mg/kg/d×3, I.V., histology, d 9 and CBC, baseline, d 4 and d 9 • Irinotecan 150 mg/kg/d×3, I.V., histology, d 9 and CBC, baseline, d 4 and d 9, and CBC, baseline, d 4 and d 9 • Irinotecan 200 mg/kg/d×3, I.V., histology 9, and CBC, d 4 and d 9 • Elsiglutide 1.8 mg/kg/d×4, S.C., histology, d 9 and CBC, baseline, d 4 and d 9 • CBC, baseline, d 4 and d 9 • Elsiglutide 1.8 mg/d×4, S.C+Irinotecan 150 mg/kg/d×3, I.V, histology, d 9, and CBD baseline, d 4 and d9 • Elsiglutide 1.8 mg/d×4, S.C.+Irinotecan 200 mg/kg/d×3, I.V, histology, d 9, and CBC d 4 and d 9 Each treatment groups consisted of 10 rats for histology of bone marrow, spleen and peripheral blood analysis, and for survivors. Evaluation of peripheral blood was carried out on day zero (0), four (4) and day nine (9), bone marrow and spleen analysis after (necropsy) was carried out on day nine (9).

The subject of data set [5] is Fischer rats. The experiment in a line: Survival / drug induced lethality. Format: in vivo, rat. The note with it: for rats died because of toxicity: days 6 and 7. The protocol:
as §4
10 rats were assessed for survival up to 4 weeks after treatments. During the study, the kinetics of drug induced toxicities in animals (weight loss/gain, stomatitis, lethality were monitored daily during the first 2 weeks then twice a week thereafter up to 4 weeks in the survival phase. At the end of the survival phase the rats were sacrificed.
as §5

The conditions of data set [6]: enzymatic degradation by DPP IV in addition to renal clearance; cited from earlier work.
Setting [7] is: irinotecan 200 mg/kg/day × 3, 5 dead rats, day 6 and day 7.

On to `O=c1[nH]cc(F)c(=O)[nH]1` [5-FU, 5-fluorouracil], for which the “overall tumor growth inhibition” value in data set [1] came out at 30%. The molecule also yielded an MTD in data set [2] of 100 mg/kg.

For `CCc1c2c(nc3ccc(OC(=O)N4CCC(N5CCCCC5)CC4)cc13)-c1cc3c(c(=O)n1C2)COC(=O)[C@]3(O)CC` [Irinotecan], in data set [1], the “overall tumor growth inhibition” value is given as 30%. Further, the “decrease (myelosuppression) in hematopoiesis of sternum bone marrow” value in data set [3] is reported as 95-98%. Further, in the data set with spleen of Fischer rats, the “extramedullary hematopoiesis in spleen” value was “did not show any sign of extramedullary hematopoiesis”. Also, the MTD in data set [2] amounted to 100 mg/kg. In addition, in the data set on Fischer rats [4] (FIG. 1, Day 4), the Platelet/Group entry is “did not change” and the RBC/Group entry is “did not change”. Also, in the data set with Fischer rats [4] (FIG. 1, Day 4, after each dose of irinotecan), the WBC/group result was “decreased”. The WBC/group result in the data set with Fischer rats [4] (FIG. 1, Day 9, irinotecan alone treated group) is on record as “did not reach the normal level”. In the data set with Fischer rats [4] (FIG. 1, after 200 mg/kg irinotecan), the Platelet/Group count result is “decreased”. In the data set with Fischer rats [4] (setting [7]), the “Eosinophils Mean Value” turned out to be 0.42, the “Lymphocytes Mean Value” was 1.55, the “Monocytes Mean Value” is 0.05 and the WBC Mean Value is 2.18 10^3/µL. Also, the “MCV Mean Value” in the data set on Fischer rats [4] (irinotecan 200 mg/kg/day × 3, 5 dead rats, day 6 and day 7, in fL (unit assumed)) amounted to 47.96. The “MCHC Mean Value” in the data set on Fischer rats [4] (irinotecan 200 mg/kg/day × 3, 5 dead rats, day 6 and day 7, in g/dL (unit assumed)) came to 36.52. Also, in the data set on Fischer rats [5] (Group 5, irinotecan 150 mg/kg i.v., day 8, 5 rats per group), the rats died result is given as “One”. For the same molecule, in the data set on Fischer rats [5] (Group 8, irinotecan 200 mg/kg i.v., day 7), the “animals died with severe diarrhea” value is given as “One”. Moreover, in the data set with Fischer rats [5] (Group 8, irinotecan 200 mg/kg i.v., sacrificed before day 9), the “rats in moribund condition with acute diarrhea” value is reported as 4. Moreover, the “rats died because of toxicity” value in the data set with Fischer rats [5] (irinotecan 150 mg/kg/d×3) came out at 10%. The “rats died because of toxicity” value in the data set on Fischer rats [5] (irinotecan 200 mg/kg/d×3) is given as “Fifty”. For the same molecule, in the data set on Fischer rats [5] (irinotecan 200 mg/kg/d×3 alone or in combination with elsiglutide), the “animals which survived treatment” value was determined as 50%.

Turning to Glucagon-like-peptide-2 [GLP-2(1-33)], the half-life result in data set [6] is on record as “about 7 minutes”.
